Values quoted from earlier work, collected in patent US9993449B2, “(S)-3-amino-4-(difluoromethylenyl)cyclopent-1-ene-1-carboxylic acid, and related compounds as GABA aminotransferase inactivators for the treatment of epilepsy, addiction and hepatocellular carcinoma” (NORTHWESTERN UNIVERSITY, priority 2015, dated 2018).

Columns and labels:
[1] = in vivo; cited from earlier work
CYP1A = biological target: T1, CYP1A (Homo sapiens, UniProt P05177); conditions: earlier finding for CPP-115; cited from earlier work
T1 construct: tissue Eurofins Panlabs; host or cells: human liver microsomes
T1 sequence (P05177 1-516): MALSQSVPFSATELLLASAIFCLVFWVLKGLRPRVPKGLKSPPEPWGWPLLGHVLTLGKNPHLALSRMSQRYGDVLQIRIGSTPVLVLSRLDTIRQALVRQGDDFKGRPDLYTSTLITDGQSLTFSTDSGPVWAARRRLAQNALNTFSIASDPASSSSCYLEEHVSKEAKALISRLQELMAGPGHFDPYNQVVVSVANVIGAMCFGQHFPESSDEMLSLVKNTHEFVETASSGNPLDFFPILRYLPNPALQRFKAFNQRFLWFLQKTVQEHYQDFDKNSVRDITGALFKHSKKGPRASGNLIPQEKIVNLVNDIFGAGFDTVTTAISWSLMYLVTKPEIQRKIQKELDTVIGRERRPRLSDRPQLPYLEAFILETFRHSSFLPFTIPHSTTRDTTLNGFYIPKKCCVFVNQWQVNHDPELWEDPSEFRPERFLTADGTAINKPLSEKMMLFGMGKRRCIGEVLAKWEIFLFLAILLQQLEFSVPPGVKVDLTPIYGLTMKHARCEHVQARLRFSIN

hERG channel = biological target: T2, hERG channel (Homo sapiens, UniProt Q12809); conditions: earlier finding for CPP-115; cited from earlier work
T2 construct: host or cells: CHO-K1

[2] = system: glucose metabolism in the hippocampus; conditions: previous similar tests; cited from earlier work
CYP2D6 = biological target: T3, CYP2D6 (Homo sapiens, UniProt P10635); conditions: earlier finding for CPP-115; cited from earlier work
T3 construct: tissue Eurofins Panlabs; host or cells: human liver microsomes

[3] = system: aspartate aminotransferase (Asp-AT); conditions: reported; cited from earlier work
striatal dopamine levels = conditions: previous similar tests; cited from earlier work
[4] = system: alanine aminotransferase (Ala-AT); conditions: reported; cited from earlier work
CYP2C8 = biological target: T4, CYP2C8 (Homo sapiens, UniProt P10632); conditions: earlier finding for CPP-115; cited from earlier work
T4 construct: tissue Eurofins Panlabs; host or cells: human liver microsomes
T4 sequence (P10632 1-490): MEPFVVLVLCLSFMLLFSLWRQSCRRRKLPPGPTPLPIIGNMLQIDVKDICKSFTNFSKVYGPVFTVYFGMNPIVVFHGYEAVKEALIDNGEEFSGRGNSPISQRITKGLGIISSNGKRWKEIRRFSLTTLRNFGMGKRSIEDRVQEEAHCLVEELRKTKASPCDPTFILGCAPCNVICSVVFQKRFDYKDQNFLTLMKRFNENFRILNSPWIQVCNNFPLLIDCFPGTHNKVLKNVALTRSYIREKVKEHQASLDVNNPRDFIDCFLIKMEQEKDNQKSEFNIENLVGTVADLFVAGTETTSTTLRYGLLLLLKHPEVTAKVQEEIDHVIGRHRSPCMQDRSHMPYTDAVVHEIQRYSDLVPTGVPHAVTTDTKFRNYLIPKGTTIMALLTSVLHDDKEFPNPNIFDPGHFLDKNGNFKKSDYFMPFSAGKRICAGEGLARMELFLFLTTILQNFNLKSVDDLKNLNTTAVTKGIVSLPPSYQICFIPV

CYP3A = conditions: earlier finding for CPP-115; cited from earlier work
[5] = biological target: T5, ornithine aminotransferase (OAT) (Homo sapiens, UniProt P04181); conditions: reported; cited from earlier work
T5 sequence (P04181 26-439): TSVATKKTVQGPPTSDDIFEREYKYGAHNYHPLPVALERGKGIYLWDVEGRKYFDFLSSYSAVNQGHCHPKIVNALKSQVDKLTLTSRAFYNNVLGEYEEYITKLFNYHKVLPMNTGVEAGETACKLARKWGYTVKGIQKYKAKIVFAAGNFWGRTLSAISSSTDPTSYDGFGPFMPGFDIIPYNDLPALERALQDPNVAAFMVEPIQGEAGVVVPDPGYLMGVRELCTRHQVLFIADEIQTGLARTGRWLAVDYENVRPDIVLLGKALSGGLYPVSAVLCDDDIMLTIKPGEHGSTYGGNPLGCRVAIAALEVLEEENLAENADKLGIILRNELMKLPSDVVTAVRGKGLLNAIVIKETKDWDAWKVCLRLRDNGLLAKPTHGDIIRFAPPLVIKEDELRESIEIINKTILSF

CYP2B6 = biological target: T6, CYP2B6 (Homo sapiens, UniProt P20813); conditions: earlier finding for CPP-115; cited from earlier work
T6 construct: tissue Eurofins Panlabs; host or cells: human liver microsomes
T6 sequence (P20813 1-491): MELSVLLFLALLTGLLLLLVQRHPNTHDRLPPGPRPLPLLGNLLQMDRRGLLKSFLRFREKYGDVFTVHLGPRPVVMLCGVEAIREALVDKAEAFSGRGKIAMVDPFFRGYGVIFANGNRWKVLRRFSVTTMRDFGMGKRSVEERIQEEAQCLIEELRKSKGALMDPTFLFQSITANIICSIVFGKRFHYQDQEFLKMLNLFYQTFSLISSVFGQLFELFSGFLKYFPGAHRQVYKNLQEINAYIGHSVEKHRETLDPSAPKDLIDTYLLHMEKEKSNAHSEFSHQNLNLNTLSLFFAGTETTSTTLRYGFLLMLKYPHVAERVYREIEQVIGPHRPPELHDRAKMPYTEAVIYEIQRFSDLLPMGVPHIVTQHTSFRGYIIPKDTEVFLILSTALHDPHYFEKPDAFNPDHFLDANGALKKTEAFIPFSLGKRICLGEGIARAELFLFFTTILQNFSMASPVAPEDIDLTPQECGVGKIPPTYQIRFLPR

infantile spasms = conditions: multiple-hit rat model; cited from earlier work
[6] = system: release of dopamine in the NAcc; conditions: freely moving rats after 20 mg/kg cocaine; cited from earlier work
CYP2C19 = biological target: T7, CYP2C19 (Homo sapiens, UniProt P33261); conditions: earlier finding for CPP-115; cited from earlier work
T7 construct: tissue Eurofins Panlabs; host or cells: human liver microsomes

CYP2C9 = biological target: T8, CYP2C9 (Homo sapiens, UniProt P11712); conditions: earlier finding for CPP-115; cited from earlier work
T8 construct: tissue Eurofins Panlabs; host or cells: human liver microsomes

cocaine addiction = cocaine addiction in humans, 9-week double-blind trial; cited from earlier work
addiction = conditions: cocaine, nicotine, methamphetamine, heroin, and alcohol; cited from earlier work
[7] = long-term administration; cited from earlier work

T8 sequence (P11712 whole entry): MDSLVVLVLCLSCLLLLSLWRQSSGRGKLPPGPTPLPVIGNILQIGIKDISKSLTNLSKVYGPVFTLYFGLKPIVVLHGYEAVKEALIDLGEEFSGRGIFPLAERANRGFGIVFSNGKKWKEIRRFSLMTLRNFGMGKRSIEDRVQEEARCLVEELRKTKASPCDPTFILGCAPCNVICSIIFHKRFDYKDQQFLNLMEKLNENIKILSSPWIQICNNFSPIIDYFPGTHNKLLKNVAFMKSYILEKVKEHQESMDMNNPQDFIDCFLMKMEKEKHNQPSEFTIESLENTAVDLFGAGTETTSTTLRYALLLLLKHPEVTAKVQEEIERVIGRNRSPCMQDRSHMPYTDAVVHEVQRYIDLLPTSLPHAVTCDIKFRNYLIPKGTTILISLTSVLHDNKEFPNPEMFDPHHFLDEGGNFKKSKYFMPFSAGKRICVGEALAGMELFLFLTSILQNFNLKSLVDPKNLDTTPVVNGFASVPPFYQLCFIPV
T7 sequence (P33261 whole entry): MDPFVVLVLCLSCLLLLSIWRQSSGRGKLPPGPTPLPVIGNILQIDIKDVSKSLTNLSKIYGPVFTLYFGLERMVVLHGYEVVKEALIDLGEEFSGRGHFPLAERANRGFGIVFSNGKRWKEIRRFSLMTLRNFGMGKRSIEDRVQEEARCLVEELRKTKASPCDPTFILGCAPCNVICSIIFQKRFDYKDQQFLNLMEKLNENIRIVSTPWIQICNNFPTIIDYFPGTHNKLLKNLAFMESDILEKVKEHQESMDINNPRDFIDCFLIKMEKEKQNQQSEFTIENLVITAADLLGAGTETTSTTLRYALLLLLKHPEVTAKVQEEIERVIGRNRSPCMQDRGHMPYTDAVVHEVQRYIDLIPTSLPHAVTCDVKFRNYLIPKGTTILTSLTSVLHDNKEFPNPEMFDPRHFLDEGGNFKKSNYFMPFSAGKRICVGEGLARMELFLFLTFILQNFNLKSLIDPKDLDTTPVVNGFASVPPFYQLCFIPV
T3 sequence (P10635 whole entry): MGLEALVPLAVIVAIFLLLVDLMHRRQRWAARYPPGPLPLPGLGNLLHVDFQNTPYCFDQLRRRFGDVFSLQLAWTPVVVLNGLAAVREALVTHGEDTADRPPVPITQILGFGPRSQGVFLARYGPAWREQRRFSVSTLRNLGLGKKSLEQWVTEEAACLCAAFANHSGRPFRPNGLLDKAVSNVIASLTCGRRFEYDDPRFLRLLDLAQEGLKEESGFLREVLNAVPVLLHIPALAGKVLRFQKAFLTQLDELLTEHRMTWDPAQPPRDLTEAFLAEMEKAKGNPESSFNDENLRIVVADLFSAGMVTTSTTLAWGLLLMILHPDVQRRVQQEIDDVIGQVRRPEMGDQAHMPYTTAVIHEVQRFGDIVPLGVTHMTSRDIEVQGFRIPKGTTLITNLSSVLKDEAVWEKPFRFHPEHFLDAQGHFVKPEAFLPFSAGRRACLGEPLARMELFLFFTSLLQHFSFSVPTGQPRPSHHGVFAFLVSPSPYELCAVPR
T2 sequence (Q12809 whole entry): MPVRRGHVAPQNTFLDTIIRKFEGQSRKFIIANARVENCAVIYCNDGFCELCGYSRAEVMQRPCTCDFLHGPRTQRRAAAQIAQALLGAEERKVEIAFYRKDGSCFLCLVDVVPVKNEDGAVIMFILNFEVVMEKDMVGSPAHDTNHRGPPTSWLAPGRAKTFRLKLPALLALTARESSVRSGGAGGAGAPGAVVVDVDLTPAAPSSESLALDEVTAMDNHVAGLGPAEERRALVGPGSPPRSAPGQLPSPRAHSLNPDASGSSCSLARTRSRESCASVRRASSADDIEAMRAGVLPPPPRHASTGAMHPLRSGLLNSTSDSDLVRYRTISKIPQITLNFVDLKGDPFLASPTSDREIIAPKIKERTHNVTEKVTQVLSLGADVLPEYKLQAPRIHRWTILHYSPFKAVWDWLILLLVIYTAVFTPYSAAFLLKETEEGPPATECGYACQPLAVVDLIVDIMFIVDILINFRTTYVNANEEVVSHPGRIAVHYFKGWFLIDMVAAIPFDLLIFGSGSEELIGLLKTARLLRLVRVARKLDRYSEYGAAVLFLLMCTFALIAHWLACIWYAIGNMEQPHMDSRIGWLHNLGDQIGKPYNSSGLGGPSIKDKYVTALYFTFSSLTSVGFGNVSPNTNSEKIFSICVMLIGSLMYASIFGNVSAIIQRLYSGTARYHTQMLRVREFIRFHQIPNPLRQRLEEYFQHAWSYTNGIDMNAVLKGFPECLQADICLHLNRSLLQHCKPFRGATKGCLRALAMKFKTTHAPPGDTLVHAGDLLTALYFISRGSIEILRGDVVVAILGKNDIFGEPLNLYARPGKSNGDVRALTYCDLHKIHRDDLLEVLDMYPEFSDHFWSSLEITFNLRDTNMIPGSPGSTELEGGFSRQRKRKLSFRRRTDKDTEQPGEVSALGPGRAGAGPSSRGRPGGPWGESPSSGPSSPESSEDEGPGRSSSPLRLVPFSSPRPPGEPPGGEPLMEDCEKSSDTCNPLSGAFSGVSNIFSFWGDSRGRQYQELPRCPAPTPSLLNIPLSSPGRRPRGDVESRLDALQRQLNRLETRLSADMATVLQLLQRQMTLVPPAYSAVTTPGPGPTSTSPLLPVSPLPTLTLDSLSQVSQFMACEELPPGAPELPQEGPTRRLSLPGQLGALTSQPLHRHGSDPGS

SMILES	margin of safety versus vigabatrin [1]	retinal toxicity liability versus vigabatrin [1]	inhibition or induction of CYP 1A (CYP1A)	inhibition of the activity of the hERG channel (hERG channel)	hippocampal metabolism (cocaine-induced) [2]	inhibition or induction of CYP 2D6 (CYP2D6)	inactivation or inhibition of Asp-AT [3]	cocaine-induced increases in striatal dopamine (striatal dopamine levels)	inactivation or inhibition of Ala-AT [4]	inhibition or induction of CYP 2C8 (CYP2C8)	inhibition or induction of CYP 3A (CYP3A)	KI (inactivation) [5] [µM]	inhibition or induction of CYP 2B6 (CYP2B6)	duration of spasm suppression versus vigabatrin (infantile spasms)	times more potent than vigabatrin in reducing the release of dopamine in the NAcc [6] [times]	inhibition or induction of CYP 2C19 (CYP2C19)	inhibition or induction of CYP 2C9 (CYP2C9)	patients achieving abstinence (cocaine addiction)	treatment of addiction in animal models (addiction)	epilepsy patients with permanent vision loss [7]
N[C@H]1C[C@@H](C(=O)O)CC1=C(F)F [CPP-115, (1S,3S)-3-amino-4-difluoromethylenyl-1-cyclopentanoic acid]	much larger	considerably lower	does not inhibit or induce	does not inhibit	did not completely block	does not inhibit or induce	not to inactivate or inhibit	blocked	not to inactivate or inhibit	does not inhibit or induce	does not inhibit or induce	116	does not inhibit or induce	longer spasm suppression	> 300	does not inhibit or induce	does not inhibit or induce	–	–	–
C=CC(N)CCC(=O)O (stereo not shown) [vigabatrin]	–	–	–	–	did not completely block	–	–	blocked	–	–	–	–	–	–	–	–	–	up to 28%	successful	25-40%
